Measured values published in the NIST ThermoML archive (doi:10.1016/j.tca.2014.05.033).
Several values for one entry are separate records, joined by “and”; a condition that tells them apart may be missing. Identical values can stand only once. Numbers after ± are expanded uncertainties.

Experiments:
[1] = mn = molality of the nth substance listed, in mol/kg; settings: 298.15 K, 101 kPa, Liquid, Vibrating tube method
[2] = refractive index (Na D-line) (dimensionless); mn = molality of the nth substance listed, in mol/kg; settings: 298.15 K, 101 kPa, Liquid, Standard Abbe refractometry
[3] = molar enthalpy of vaporization or sublimation; settings: 298.15 K, DSC
[4] = Liquid, Transpiration method

`c1ccc(-c2cccc(-c3ccccc3)c2-c2ccccc2)cc1` [1,2,3-triphenylbenzene] + c1ccccc1 gave a mass density ([1]; m1 = 0.00038) of 873.87 ± 0.78 kg/m3, a mass density ([1]; m1 = 0.00061) of 874.054 ± 0.83 kg/m3 and a mass density ([1]; m1 = 0.0007) of 874.135 ± 0.78 kg/m3. For the same compound, the mass density ([1]; m1 = 0.0008) was 874.201 ± 0.67 kg/m3, the refractive index ([2]; m1 = 0.00038) was 1.49797 ± 0.00031 and the refractive index ([2]; m1 = 0.00061) was 1.49809 ± 0.00031. It also gave a refractive index ([2]; m1 = 0.0007) of 1.49814 ± 0.00031 and a refractive index ([2]; m1 = 0.0008) of 1.49819 ± 0.00031.
For `c1cc2ccc3cccc4ccc(c1)c2c34` [pyrene], the molar enthalpy ([3]; Crystal) was 25.2 ± 0.789 kcal/mol.
`C(#Cc1ccccc1)c1ccccc1` [1,2-diphenylethyne] showed a molar enthalpy ([3]; Crystal) of 22 ± 1.08 kcal/mol.
`c1ccc(-c2c3ccccc3c(-c3ccccc3)c3ccccc23)cc1` [9,10-diphenylanthracene] gave a molar enthalpy ([3]; Crystal) of 36.5 ± 1.27 kcal/mol.
In the case of `c1ccc(-c2c3ccccc3c(-c3ccccc3)c3c(-c4ccccc4)c4ccccc4c(-c4ccccc4)c23)cc1` [5,6,11,12-tetraphenylnaphthacene], the molar enthalpy ([3]; Crystal) is reported as 51 ± 1.31 kcal/mol.
Work on `c1ccc(-c2ccc(-c3ccccc3)cc2)cc1` [p-terphenyl] yielded a molar enthalpy ([3]; Crystal) of 29 ± 1 kcal/mol.
In the case of `c1ccc(-c2c(-c3ccccc3)c(-c3ccccc3)c3ccccc3c2-c2ccccc2)cc1` [1,2,3,4-tetraphenylnaphthalene], the molar enthalpy ([3]; Crystal) is reported as 39.4 ± 1.48 kcal/mol.
With `c1ccc(-c2cccc3ccccc23)cc1` [1-phenylnaphthalene] the molar enthalpy ([3]; Liquid) was 19.8 ± 0.621 kcal/mol, the “vapor or sublimation pressure” value ([4]; 318.5 K) was 0.00026 ± 2e-05 kPa and the “vapor or sublimation pressure” value ([4]; 323.5 K) was 0.00038 ± 2e-05 kPa. The “vapor or sublimation pressure” value ([4]; 328.3 K) was 0.00062 ± 3e-05 kPa, the “vapor or sublimation pressure” value ([4]; 328.4 K) was 0.0006 ± 3e-05 kPa and the “vapor or sublimation pressure” value ([4]; 333.4 K) was 0.00092 ± 5e-05 kPa. The “vapor or sublimation pressure” value ([4]; 338 K) was 0.00136 ± 7e-05 kPa, the “vapor or sublimation pressure” value ([4]; 343.6 K) was 0.00209 ± 0.00011 kPa and 0.0021 ± 0.00011 kPa and the “vapor or sublimation pressure” value ([4]; 351 K) was 0.00376 ± 0.0002 kPa. The “vapor or sublimation pressure” value ([4]; 353.1 K) was 0.00462 ± 0.00024 kPa, the “vapor or sublimation pressure” value ([4]; 358.3 K) was 0.00644 ± 0.00034 kPa and the “vapor or sublimation pressure” value ([4]; 358.5 K) was 0.00687 ± 0.00036 kPa. The “vapor or sublimation pressure” value ([4]; 363 K) was 0.00953 ± 0.0005 kPa, the “vapor or sublimation pressure” value ([4]; 368.3 K) was 0.01352 ± 0.0007 kPa and the “vapor or sublimation pressure” value ([4]; 371 K) was 0.01665 ± 0.00087 kPa.
For `c1ccc2cc3c(ccc4ccccc43)cc2c1` [benz[a]anthracene], the molar enthalpy ([3]; Crystal) was 27.8 ± 0.741 kcal/mol.
`c1ccc(-c2c3ccccc3cc3ccccc23)cc1` [9-phenylanthracene] showed a molar enthalpy ([3]; Crystal) of 30 ± 0.765 kcal/mol.
With `c1ccccc1` [benzene] + c1ccc(-c2cccc(-c3ccccc3)c2)cc1 the mass density ([1]; m2 = 0) was 873.483 ± 0.54 kg/m3 and the refractive index ([2]; m2 = 0) was 1.49772 ± 0.00031.
In the case of `c1ccccc1` [benzene] + c1ccc(-c2c(-c3ccccc3)c(-c3ccccc3)c3ccccc3c2-c2ccccc2)cc1, the mass density ([1]; m2 = 0) is reported as 873.277 ± 1.3 kg/m3 and the refractive index ([2]; m2 = 0) is reported as 1.49731 ± 0.00031.
Work on `c1ccc(-c2cccc(-c3ccccc3)c2-c2ccccc2)cc1` [1,2,3-triphenylbenzene] yielded a molar enthalpy ([3]; Crystal) of 33.1 ± 1 kcal/mol.
For `c1ccccc1` [benzene] + c1ccc(-c2c3ccccc3c(-c3ccccc3)c3ccccc23)cc1, the mass density ([1]; m2 = 0) was 873.534 ± 0.89 kg/m3 and the refractive index ([2]; m2 = 0) was 1.49752 ± 0.00031.
`C(#Cc1ccccc1)c1ccccc1` [1,2-diphenylethyne] + c1ccccc1 showed a mass density ([1]; m1 = 0.00019) of 873.334 ± 0.34 kg/m3, a mass density ([1]; m1 = 0.00036) of 873.403 ± 0.45 kg/m3 and a mass density ([1]; m1 = 0.00042) of 873.437 ± 0.58 kg/m3. It also gave a mass density ([1]; m1 = 0.00079) of 873.534 ± 0.28 kg/m3, a refractive index ([2]; m1 = 0.00019) of 1.49738 ± 0.00031 and a refractive index ([2]; m1 = 0.00036) of 1.49743 ± 0.00031. For the same compound, the refractive index ([2]; m1 = 0.00042) was 1.49747 ± 0.00031 and the refractive index ([2]; m1 = 0.00079) was 1.49756 ± 0.00031.
In the case of `c1ccc(-c2c(-c3ccccc3)c(-c3ccccc3)c(-c3ccccc3)c(-c3ccccc3)c2-c2ccccc2)cc1` [hexaphenylbenzene], the molar enthalpy ([3]; Crystal) is reported as 46.8 ± 1.41 kcal/mol.
`c1ccc2c(c1)ccc1cc3c(ccc4ccccc43)cc12` [dibenz[a,h]anthracene] gave a molar enthalpy ([3]; Crystal) of 35.4 ± 1.12 kcal/mol.
`c1ccccc1` [benzene] + C(#Cc1ccccc1)c1ccccc1 gave a mass density ([1]; m2 = 0) of 873.285 ± 0.28 kg/m3 and a refractive index ([2]; m2 = 0) of 1.49734 ± 0.00031.
With `C(=C\c1ccccc1)/c1ccccc1` [(E)-1,2-diphenylethene] the molar enthalpy ([3]; Crystal) was 24.6 ± 0.669 kcal/mol.
In the case of `c1ccc2c(c1)-c1cccc3cccc-2c13` [fluoranthene], the molar enthalpy ([3]; Crystal) is reported as 24.1 ± 0.669 kcal/mol.
`c1ccccc1` [benzene] + c1ccc(-c2cccc(-c3ccccc3)c2-c2ccccc2)cc1 showed a mass density ([1]; m2 = 0) of 873.584 ± 0.76 kg/m3 and a refractive index ([2]; m2 = 0) of 1.49778 ± 0.00031.
With `c1ccc(-c2cccc(-c3ccccc3)c2)cc1` [m-terphenyl] + c1ccccc1 the mass density ([1]; m1 = 0.00482) was 876.044 ± 0.54 kg/m3, the mass density ([1]; m1 = 0.00941) was 878.445 ± 0.53 kg/m3 and the mass density ([1]; m1 = 0.0142) was 880.914 ± 0.52 kg/m3. For the same compound, the mass density ([1]; m1 = 0.0215) was 884.612 ± 0.52 kg/m3, the refractive index ([2]; m1 = 0.00482) was 1.49966 ± 0.00031 and the refractive index ([2]; m1 = 0.00941) was 1.50149 ± 0.00031. It also gave a refractive index ([2]; m1 = 0.0142) of 1.50336 ± 0.00031 and a refractive index ([2]; m1 = 0.0215) of 1.50621 ± 0.00031.
In the case of `c1ccc(-c2cccc(-c3ccccc3)c2)cc1` [m-terphenyl], the molar enthalpy ([3]; Crystal) is reported as 27.6 ± 0.621 kcal/mol.
Compound `c1ccc(-c2c3ccccc3cc3ccccc23)cc1` [9-phenylanthracene] + c1ccccc1 has a mass density ([1]; m1 = 0.00011) of 873.687 ± 0.71 kg/m3, a mass density ([1]; m1 = 0.00032) of 873.837 ± 0.75 kg/m3 and a mass density ([1]; m1 = 0.00038) of 873.891 ± 0.91 kg/m3. It also gave a mass density ([1]; m1 = 0.0008) of 874.047 ± 0.39 kg/m3, a refractive index ([2]; m1 = 0.00011) of 1.49764 ± 0.00031 and a refractive index ([2]; m1 = 0.00032) of 1.49776 ± 0.00031. The refractive index ([2]; m1 = 0.00038) was 1.4978 ± 0.00031 and the refractive index ([2]; m1 = 0.0008) was 1.49794 ± 0.00031.
With `c1ccccc1` [benzene] + c1ccc(-c2c3ccccc3cc3ccccc23)cc1 the mass density ([1]; m2 = 0) was 873.612 ± 0.69 kg/m3 and the refractive index ([2]; m2 = 0) was 1.49758 ± 0.00031.
`c1ccc(-c2c3ccccc3c(-c3ccccc3)c3ccccc23)cc1` [9,10-diphenylanthracene] + c1ccccc1 gave a mass density ([1]; m1 = 0.00012) of 873.64 ± 0.84 kg/m3, a mass density ([1]; m1 = 0.00016) of 873.666 ± 0.93 kg/m3 and a mass density ([1]; m1 = 0.00022) of 873.731 ± 1.1 kg/m3. The mass density ([1]; m1 = 0.00028) was 873.796 ± 1.1 kg/m3, the mass density ([1]; m1 = 0.0003) was 873.822 ± 1.3 kg/m3 and the refractive index ([2]; m1 = 0.00012) was 1.49761 ± 0.00031. The refractive index ([2]; m1 = 0.00016) was 1.49763 ± 0.00031, the refractive index ([2]; m1 = 0.00022) was 1.49768 ± 0.00031 and the refractive index ([2]; m1 = 0.00028) was 1.49773 ± 0.00031. The refractive index ([2]; m1 = 0.0003) was 1.49776 ± 0.00031.
With `c1ccc(-c2c(-c3ccccc3)c(-c3ccccc3)c3ccccc3c2-c2ccccc2)cc1` [1,2,3,4-tetraphenylnaphthalene] + c1ccccc1 the mass density ([1]; m1 = 8e-05) was 873.38 ± 1.3 kg/m3, the mass density ([1]; m1 = 0.00011) was 873.424 ± 1.2 kg/m3 and the mass density ([1]; m1 = 0.00017) was 873.488 ± 1.2 kg/m3 and 873.494 ± 1.2 kg/m3. It also gave a mass density ([1]; m1 = 0.00022) of 873.551 ± 1.3 kg/m3, a refractive index ([2]; m1 = 0.0008) of 1.49737 ± 0.00031 and a refractive index ([2]; m1 = 0.0011) of 1.4974 ± 0.00031. The refractive index ([2]; m1 = 0.0017) was 1.49744 ± 0.00031 and 1.49745 ± 0.00031 and the refractive index ([2]; m1 = 0.0022) was 1.49748 ± 0.00031.
